Results: PubChem BioAssay (NCI)
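1) Cells in 96-well plates. 2) Compound, 48 h, 5 concentrations. 3) Linear interpolation between surrounding doses. 4) Unreached endpoint = highest concentration. TGI marks complete inhibition of growth.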

What was measured:
Assay in all cases: inhibition of tumour cell growth, NCI panel, 48 h
786-0 renal = system: 786-0 renal
UACC-62 melanoma = system: UACC-62 melanoma
SF-539 CNS = system: SF-539 CNS
A549 NSCLC = system: A549 NSCLC
SR leukemia = system: SR leukemia
IGROV1 ovarian = system: IGROV1 ovarian
MOLT-4 leukemia = system: MOLT-4 leukemia
KM12 colon = system: KM12 colon
K-562 leukemia = system: K-562 leukemia
OVCAR-8 ovarian = system: OVCAR-8 ovarian
DLD-1 colon = system: DLD-1 colon
SK-MEL-28 melanoma = system: SK-MEL-28 melanoma
NCI-H23 lung = system: NCI-H23 lung
SF-268 CNS = system: SF-268 CNS
SF-295 CNS = system: SF-295 CNS
SNB-19 CNS = system: SNB-19 CNS
SNB-78 CNS = system: SNB-78 CNS
TK-10 renal = system: TK-10 renal
HT29 colon = system: HT29 colon
SK-OV-3 ovarian = system: SK-OV-3 ovarian
DMS 114 small cell lung = system: DMS 114 small cell lung
NCI-H226 lung = system: NCI-H226 lung
LOX IMVI melanoma = system: LOX IMVI melanoma
HCT-116 colon = system: HCT-116 colon
LXFL 529 NSCLC = system: LXFL 529 NSCLC
CCRF-CEM leukemia = system: CCRF-CEM leukemia
HL-60(TB) leukemia = system: HL-60(TB) leukemia
EKVX NSCLC = system: EKVX NSCLC
SNB-75 CNS = system: SNB-75 CNS
OVCAR-3 ovarian = system: OVCAR-3 ovarian
M14 melanoma = system: M14 melanoma
HCC-2998 colon = system: HCC-2998 colon
SK-MEL-5 melanoma = system: SK-MEL-5 melanoma
OVCAR-4 ovarian = system: OVCAR-4 ovarian
M19-MEL melanoma = system: M19-MEL melanoma
HOP-62 NSCLC = system: HOP-62 NSCLC
UO-31 renal = system: UO-31 renal
DMS 273 small cell lung = system: DMS 273 small cell lung
COLO 205 colon = system: COLO 205 colon
UACC-257 melanoma = system: UACC-257 melanoma
SW-620 colon = system: SW-620 colon
XF 498 CNS = system: XF 498 CNS
HCT-15 colon = system: HCT-15 colon
SN12C renal = system: SN12C renal
RPMI-8226 leukemia = system: RPMI-8226 leukemia
ACHN renal = system: ACHN renal
U251 CNS = system: U251 CNS
OVCAR-5 ovarian = system: OVCAR-5 ovarian
SK-MEL-2 melanoma = system: SK-MEL-2 melanoma
NCI-H460 lung = system: NCI-H460 lung
KM20L2 colon = system: KM20L2 colon
MALME-3M melanoma = system: MALME-3M melanoma
RXF 393 renal = system: RXF 393 renal
CAKI-1 renal = system: CAKI-1 renal
A498 renal = system: A498 renal

**Q.** Which results are given for N#CNC1=NC(Cc2ccccc2)C(=O)N1CCc1c[nH]c2ccccc12 (configuration not stated)?
**A.** TGI (786-0 renal): 42.1 µM; TGI (UACC-62 melanoma): 86 µM; TGI (SF-539 CNS): 83.2 µM; TGI (A549 NSCLC): > 100 µM; TGI (SR leukemia): > 100 µM; TGI (IGROV1 ovarian): > 100 µM; TGI (MOLT-4 leukemia): 58.3 µM; TGI (KM12 colon): > 100 µM; TGI (K-562 leukemia): > 100 µM; TGI (OVCAR-8 ovarian): > 100 µM; TGI (DLD-1 colon): > 100 µM; TGI (SK-MEL-28 melanoma): 67.8 µM; TGI (NCI-H23 lung): > 100 µM; TGI (SF-268 CNS): 83.5 µM; TGI (SF-295 CNS): > 100 µM; TGI (SNB-19 CNS): > 100 µM; TGI (SNB-78 CNS): 63 µM; TGI (TK-10 renal): 89.9 µM; TGI (HT29 colon): > 100 µM; TGI (SK-OV-3 ovarian): 80.2 µM; TGI (DMS 114 small cell lung): 91.9 µM; TGI (NCI-H226 lung): > 100 µM; TGI (LOX IMVI melanoma): > 100 µM; TGI (HCT-116 colon): 50.4 µM; TGI (LXFL 529 NSCLC): > 100 µM; TGI (CCRF-CEM leukemia): 74.6 µM; TGI (HL-60(TB) leukemia): 60.5 µM; TGI (EKVX NSCLC): 81.5 µM; TGI (SNB-75 CNS): 33.2 µM; TGI (OVCAR-3 ovarian): > 100 µM; TGI (M14 melanoma): > 100 µM; TGI (HCC-2998 colon): 48.6 µM; TGI (SK-MEL-5 melanoma): 41.7 µM; TGI (OVCAR-4 ovarian): > 100 µM; TGI (M19-MEL melanoma): 92.4 µM; TGI (HOP-62 NSCLC): 92.1 µM; TGI (UO-31 renal): 64.5 µM; TGI (DMS 273 small cell lung): > 100 µM; TGI (COLO 205 colon): 43.6 µM; TGI (UACC-257 melanoma): > 100 µM; TGI (SW-620 colon): > 100 µM; TGI (XF 498 CNS): 68.4 µM; TGI (HCT-15 colon): > 100 µM; TGI (SN12C renal): > 100 µM; TGI (RPMI-8226 leukemia): > 100 µM

**Q.** With CC(=O)O[C@H]1CC[C@@]2(C)C(=CC[C@@H]3C2CC[C@]2(C)Nc4c(cnn4-c4ccccc4)CC32)C1 (some centres not stated) as the compound, how does the TGI (786-0 renal) read?
**A.** 36.6 µM

**Q.** What about the TGI (UACC-62 melanoma) of the same compound?
**A.** > 100 µM

**Q.** What about the TGI (SF-539 CNS) of the same compound?
**A.** 9.12 µM

**Q.** And the TGI (ACHN renal)?
**A.** > 100 µM

**Q.** What about the TGI (U251 CNS) of the same compound?
**A.** > 100 µM

**Q.** What about the TGI (A549 NSCLC) of the same compound?
**A.** > 100 µM

**Q.** What about the TGI (IGROV1 ovarian) of the same compound?
**A.** > 100 µM

**Q.** And the TGI (OVCAR-5 ovarian)?
**A.** > 100 µM

**Q.** What about the TGI (SK-MEL-2 melanoma) of the same compound?
**A.** > 100 µM

**Q.** What about the TGI (KM12 colon) of the same compound?
**A.** 69.8 µM

**Q.** What about the TGI (NCI-H460 lung) of the same compound?
**A.** > 100 µM

**Q.** And the TGI (OVCAR-8 ovarian)?
**A.** > 100 µM

**Q.** What about the TGI (KM20L2 colon) of the same compound?
**A.** > 100 µM

**Q.** What about the TGI (DLD-1 colon) of the same compound?
**A.** > 100 µM

**Q.** What about the TGI (SK-MEL-28 melanoma) of the same compound?
**A.** > 100 µM

**Q.** And the TGI (NCI-H23 lung)?
**A.** > 100 µM

**Q.** And the TGI (MALME-3M melanoma)?
**A.** > 100 µM

**Q.** What about the TGI (SF-295 CNS) of the same compound?
**A.** 8.52 µM

**Q.** And the TGI (SNB-78 CNS)?
**A.** > 100 µM

**Q.** What about the TGI (TK-10 renal) of the same compound?
**A.** > 100 µM

**Q.** What about the TGI (HT29 colon) of the same compound?
**A.** > 100 µM

**Q.** What about the TGI (SK-OV-3 ovarian) of the same compound?
**A.** > 100 µM

**Q.** What about the TGI (DMS 114 small cell lung) of the same compound?
**A.** > 100 µM

**Q.** What about the TGI (NCI-H226 lung) of the same compound?
**A.** > 100 µM

**Q.** And the TGI (HCT-116 colon)?
**A.** > 100 µM

**Q.** What about the TGI (LXFL 529 NSCLC) of the same compound?
**A.** > 100 µM

**Q.** What about the TGI (CCRF-CEM leukemia) of the same compound?
**A.** > 100 µM

**Q.** And the TGI (HL-60(TB) leukemia)?
**A.** > 100 µM

**Q.** What about the TGI (EKVX NSCLC) of the same compound?
**A.** > 100 µM

**Q.** And the TGI (SNB-75 CNS)?
**A.** 30.8 µM

**Q.** What about the TGI (OVCAR-3 ovarian) of the same compound?
**A.** > 100 µM

**Q.** And the TGI (M14 melanoma)?
**A.** > 100 µM

**Q.** What about the TGI (HCC-2998 colon) of the same compound?
**A.** 70.8 µM

**Q.** And the TGI (SK-MEL-5 melanoma)?
**A.** > 100 µM

**Q.** What about the TGI (RXF 393 renal) of the same compound?
**A.** 42.2 µM

**Q.** What about the TGI (OVCAR-4 ovarian) of the same compound?
**A.** 66.9 µM

**Q.** What about the TGI (CAKI-1 renal) of the same compound?
**A.** > 100 µM

**Q.** What about the TGI (M19-MEL melanoma) of the same compound?
**A.** > 100 µM

**Q.** What about the TGI (HOP-62 NSCLC) of the same compound?
**A.** 63.9 µM

**Q.** And the TGI (UO-31 renal)?
**A.** 84 µM

**Q.** And the TGI (DMS 273 small cell lung)?
**A.** 18.4 µM

**Q.** And the TGI (UACC-257 melanoma)?
**A.** > 100 µM

**Q.** And the TGI (SW-620 colon)?
**A.** > 100 µM

**Q.** And the TGI (XF 498 CNS)?
**A.** > 100 µM

**Q.** And the TGI (HCT-15 colon)?
**A.** > 100 µM

**Q.** And the TGI (A498 renal)?
**A.** 51.9 µM

**Q.** What about the TGI (RPMI-8226 leukemia) of the same compound?
**A.** 6.62 µM
